We go through ten compounds from PMC7413254 (Nature Communications, 2020).

Positions count from the first letter of the chain named.

The test system of one experiment is non-expressing oocytes. In words: [3H]VF-6 transport (efflux) from injected Xenopus oocytes. The format is cell-based, Xenopus laevis. Conditions: trans-inhibition, treatment 45 mM. As for the experimental part:
The characterisation of [^3H]VF-6 transport via 23 different field and laboratory-derived isoforms of PfCRT was undertaken with oocytes two days post-cRNA-injection (Figs. 3a–j, 4; Supplementary Fig. 2). The oocytes were injected with 25 nL of ND96 buffer (pH 5.5) supplemented with [^3H]VF-6 and unlabelled VF-6 to achieve estimated intracellular concentrations of 1.4 and 200 μM, respectively. Ten oocytes that had resealed at the injection site were transferred to a 5 mL polystyrene round bottom tube (In Vitro Technologies) and washed with 3.5 mL of ND96 buffer before being transferred to separate wells of a white 96-well plate (PerkinElmer). This treatment served to establish the amount of radioactivity within the oocytes immediately prior to the commencement of the transport assay. Another 10 resealed oocytes were transferred to a 5 mL tube and washed with 3.5 mL of ND96 buffer. The assay commenced with the addition of 100 μL of ND96 buffer and the oocytes were incubated at 27.5 °C for 1.5 h (unless specified otherwise; Fig. 3b). The assay was terminated by removing the reaction buffer with a pipette and washing the oocytes twice with 3.5 mL of ice-cold ND96 buffer. Each oocyte was transferred to a separate well of a white 96-well plate. The oocytes were lysed by the addition of 20 μL of 10% (w/v) SDS and overnight incubation at room temperature. The lysed oocyte was then combined with 150 μL of MicroScint-40 microscintillant (PerkinElmer), the plate covered with a TopSeal-A (PerkinElmer), and the radioactivity measured with a MicroBeta^2 microplate liquid scintillation analyser (PerkinElmer). VF-6 transport was calculated by subtracting the amount of radioactivity (measured in counts per minute) present within the oocytes at the end of the incubation from that measured in the oocytes sampled immediately before the commencement of the assay. The pH-dependence of transport (Fig. 3c) was determined by injecting the oocytes with [^3H]VF-6 suspended in 25 nL ND96 buffer adjusted to pH 5.0, 5.5, 6.0 or 7.0, which corresponded to the injection of 2.5–250 fmol of H^+. The dependence of [^3H]VF-6 transport on Na^+ or Cl^− was examined by injecting the oocytes with [^3H]VF-6 suspended in the control ND96 buffer (pH 5.5) or a version of this buffer that lacked either Na^+ or Cl^− (Supplementary Fig. 2). Na^+ was replaced with 96 mM of KCl and Cl^− was replaced with gluconate salts of Na^+ (NaC6H11O7; 96 mM), K^+ (KC6H11O7; 2 mM), Mg^2+ (MgC12H22O14; 1 mM) and Ca^2+ (CaC12H22O14; 1.8 mM). The dependence of peptide transport on Ca^2+ was determined by injecting the oocytes with [^3H]VF-6 suspended in ND96 buffers that contained different concentrations of Ca^2+ (0–5 mM; Supplementary Fig. 2). […] The dependence of PfCRT-mediated transport on the membrane potential was examined by using (1) Na^+ ionophore III in conjunction with the Na^+ gradients listed in Supplementary Data 7 and (2) Cl^− ionophore III in conjunction with the Cl^− gradients listed in Supplementary Data 7 to clamp the membrane potential of the oocyte from −80 to +80 mV. […] The kinetic parameters for VF-6 transport via different isoforms of PfCRT (Figs. 3e and 4a) were determined in SigmaPlot Windows Version 11.0 by a least-squares fit of the Michaelis–Menten equation to the data.
A subset of assays measured the ability of solutes known to interact with PfCRT to either cis-inhibit, trans-inhibit or trans-stimulate [^3H]VF-6 transport. These experiments involved adding these solutes to either the cis- or trans-side of the membrane relative to [^3H]VF-6. […] At least five independent experiments were performed (on different days and using oocytes from different frogs), and within each experiment measurements were made from ten oocytes per treatment.

Experiment [1] deals with C4^Dd2 versus C2^GC03 infected erythrocytes. In words: Peptidomic analysis, peptide levels in C4^Dd2 relative to C2^GC03 parasites (LC-MS). The format is cell-based, Plasmodium falciparum.
The target of experiment [2] is T1, PfCRT^Dd2 in C4^Dd2 parasites (Plasmodium falciparum, UniProt Q8IBZ9, A220S/I356T/K76T/M74I/N326S/N75E/Q271E/R371I).
T1 construct: PfCRT also functions as a peptide transporter within its native environment of the DV membrane; expressed in transfected cells; host or cells: P. falciparum pfcrt transfectant line C4^Dd2 (saponin-isolated trophozoites)
T1 sequence (Q8IBZ9 1-424 M74I/N75E/K76T/A220S/Q271E/N326S/I356T/R371I): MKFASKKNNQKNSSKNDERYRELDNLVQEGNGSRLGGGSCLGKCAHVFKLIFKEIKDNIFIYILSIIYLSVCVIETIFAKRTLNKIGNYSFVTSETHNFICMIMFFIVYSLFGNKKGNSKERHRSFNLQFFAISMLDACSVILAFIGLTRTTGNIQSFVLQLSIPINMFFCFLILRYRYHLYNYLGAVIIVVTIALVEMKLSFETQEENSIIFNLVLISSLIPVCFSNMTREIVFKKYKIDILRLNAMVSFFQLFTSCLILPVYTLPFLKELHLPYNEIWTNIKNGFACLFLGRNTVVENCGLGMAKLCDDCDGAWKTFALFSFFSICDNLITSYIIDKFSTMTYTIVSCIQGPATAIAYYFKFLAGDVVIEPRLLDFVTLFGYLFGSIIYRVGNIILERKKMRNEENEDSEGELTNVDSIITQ
In words: P. falciparum H+-efflux assay (rate of DV alkalinisation after concanamycin A). The class given is cell-based. Conditions: C4Dd2; for Effect on rate of DV alkalinisation / H+ leak (in words): test solute 10 μM.

The target in experiment [3] is T2, PfCRT^3D7 in C2^GC03 parasites (Plasmodium falciparum, UniProt Q8IBZ9).
T2 construct: PfCRT also functions as a peptide transporter within its native environment of the DV membrane; expressed in transfected cells; host or cells: P. falciparum pfcrt transfectant line C2^GC03 (saponin-isolated trophozoites)
T2 sequence (Q8IBZ9 1-424): T1 sequence (Q8IBZ9 1-424 M74I/N75E/K76T/A220S/Q271E/N326S/I356T/R371I) with I74M, E75N, T76K, S220A, E271Q, S326N, T356I, I371R
Described as above. The format is cell-based. The following applies: C2GC03; for Effect on rate of DV alkalinisation / H+ leak (in words): test solute 10 μM.

The mark [4] stands for this setting: Peptides tested before peptidomic data was obtained.

In the case of PVNF [VF-6-derived peptide], the “[3H]VF-6 transport, non-expressing oocytes (% PfCRT3D7 control)” value with non-expressing oocytes (Experiment 1) stood at 4.26 % PfCRT3D7 control; in the experiment with non-expressing oocytes (Experiment 2), 4.58 % PfCRT3D7 control; with non-expressing oocytes (Experiment 3), 4.28 % PfCRT3D7 control; with non-expressing oocytes (Experiment 4), 4.2 % PfCRT3D7 control; in the experiment with non-expressing oocytes (Experiment 5), 3.58 % PfCRT3D7 control.

Take VDPVN [VF-6-derived peptide]: the “[3H]VF-6 transport, non-expressing oocytes (% PfCRT3D7 control)” value in the experiment on non-expressing oocytes (Experiment 1) stood at 3.62 % PfCRT3D7 control; in the experiment on non-expressing oocytes (Experiment 2) it was 3.95 % PfCRT3D7 control; in the experiment on non-expressing oocytes (Experiment 3) it was 3.26 % PfCRT3D7 control; with non-expressing oocytes (Experiment 4), 3.58 % PfCRT3D7 control; with non-expressing oocytes (Experiment 5), 3.77 % PfCRT3D7 control.

Take DPVNF [VF-6-derived peptide]: the “[3H]VF-6 transport, non-expressing oocytes (% PfCRT3D7 control)” value in the experiment on non-expressing oocytes (Experiment 1) is 3.25 % PfCRT3D7 control; in the experiment on non-expressing oocytes (Experiment 2), 3.26 % PfCRT3D7 control; with non-expressing oocytes (Experiment 3) it was 3.78 % PfCRT3D7 control; in the experiment on non-expressing oocytes (Experiment 4), 3.25 % PfCRT3D7 control; in the experiment with non-expressing oocytes (Experiment 5), 3.35 % PfCRT3D7 control.

With PENF [PEF-4], the “Assignment as substrate or not a substrate based on accumulation ratios from peptidomic data” value in experiment [1] (setting [4]) is reported as “substrate”.

Take `CC(C)(C)NC(=O)[C@@H]1C[C@@H]2CCCC[C@@H]2CN1C[C@@H](O)[C@H](Cc1ccccc1)NC(=O)[C@H](CC(N)=O)NC(=O)c1ccc2ccccc2n1` [Saquinavir, saquinavir, reference compound]: the “Maximum rate of peptide mimic-induced DV alkalinization” value in experiment [2] (mean ± SEM, n = 5, SEM) is 0.011 ±0.003 fluorescence ratio/s; in experiment [3] (mean ± SEM, n = 5, SEM), 0.039 ±0.002 fluorescence ratio/s. For the same compound, the “Effect on rate of DV alkalinisation / H+ leak (in words)” value in experiment [2] and in experiment [3] was “increased the rate of DV alkalinisation” throughout.

As to PHFD [PD-4], in experiment [1] (setting [4]), the “Assignment as substrate or not a substrate based on accumulation ratios from peptidomic data” value was “substrate”.

Take DPVN [VF-6-derived peptide]: the “[3H]VF-6 transport, non-expressing oocytes (% PfCRT3D7 control)” value in the experiment with non-expressing oocytes (Experiment 1) is given as 3.68 % PfCRT3D7 control; in the experiment with non-expressing oocytes (Experiment 2), 3.18 % PfCRT3D7 control; in the experiment on non-expressing oocytes (Experiment 3), 3.95 % PfCRT3D7 control; in the experiment with non-expressing oocytes (Experiment 4) it was 3.69 % PfCRT3D7 control; in the experiment on non-expressing oocytes (Experiment 5), 3.36 % PfCRT3D7 control.

In the case of `N[C@@H](Cc1c[nH]cn1)C(=O)O` [L-histidine], the “Effect on rate of DV alkalinisation / H+ leak (in words)” value in experiment [2] and in experiment [3] was “without effect” in each case.

DPVN [DN-4]: in experiment [1] (Peptides tested after peptidomic data was obtained), the “Assignment as substrate or not a substrate based on accumulation ratios from peptidomic data” value is listed as “substrate”.

For `CCN(CC)CCCC(C)Nc1ccnc2cc(Cl)ccc12` (stereo not shown) [CQ, chloroquine, reference compound], the “Effect on rate of DV alkalinisation / H+ leak (in words)” value in experiment [2] is “increase”; in experiment [3], “decrease slightly”.
